Laboratory results from patent US20210130767A1, “Species of Genus Pholiota and Artificial Cultivation Method and Use Thereof” (Guangdong Institute of Microbiology (Guangdong Detection …, priority 2019, published 2021).

Tested on: Staphylococcus aureus
Assay: Determination of inhibition zone (agar well diffusion, coating / pour plate method)
Assay type: cell-based
Details: 24 h, 37° C., 1 day, x ± s, n = 3, positive control ampicillin 5 μg/mL, read-out: inhibition zone diameter
Experimental: Bacterial medium: nutrient agar/broth medium;
Nutrition agar/broth medium: beef paste 3 g, peptone 10 g, sodium chloride 5 g, agar 15 g, add water to 1000 ml, and adjust the pH to 7.4 (nutrient broth without agar).
Preparation of ethyl acetate extract: using rice medium (formulated rice and water), the strain of the present invention was incubated and cultured for 45 days, ethyl acetate was added, ultrasonic extraction was performed twice, 40 minutes for each time, and the extract was combined. The solvent was recovered in a rotary evaporator, and steamed to about 1-2 mL of the extract, and transferred to a collection bottle, the ethyl acetate extract is obtained and placed in a vacuum desiccator. After the solvent was completely evaporated, it was transferred to a refrigerator at 4° C. for use, and was filtrated and sterilizd with the bacteria syringe and filter for use.
Positive control preparation: Ampicillin solution, diluted with sterile water to a concentration of 5 μg/mL of the control solution, UV sterilization for 30 min. […]
The counted bacteria solution was diluted to a final concentration of 10^5˜10^6 cfu/mL, and 200 μL of the prepared bacteria suspension was pipetted onto the plate and uniformly coated with a coater. […] The culture was allowed to stand for 1 day, and the size of inhibition zone was measured. […]

## CC1(C)S[C@@H]2[C@H](NC(=O)[C@H](N)c3ccccc3)C(=O)N2[C@H]1C(=O)O [Positive control, Ampicillin]
  zone of inhibition at 5 µg/mL: 19.8 ± 1.7 mm
